The subject of test [1] is ATF3. Kind of test: PBBI in rats: ATF3 Western blotting. The class given is in vivo. As to conditions: 24 hrs. after PBBI. The source says:
The unilateral frontal PBBI model, which mimics the ballistic dynamics of a bullet or fragment wound to the head (Williams, 2003; Williams, 2006), was induced by stereotactic insertion of a custom probe through the right frontal cortex. A temporary cavity was formed by the rapid inflation/deflation (i.e. <40 msec) of an elastic balloon attached to the end of the probe. The PBBI apparatus consisted of a computer-controlled hydraulic pressure generator (Mitre Corp McLean, Va.), a PBBI probe and a stereotaxic frame equipped with a custom-designed probe holder as previously described (Lu, 2009; Williams, 2003). The injury severity was determined by the size of the balloon under control of the computerized hydraulic pressure. The balloon diameter calibrated to 0.63 cm expansion represented 10% of the total rat brain volume thus expressing a 10% PBBI. All surgeries were done under anaesthesia. Groups tested: Sham+vehicle, PBBI+vehicle, PBBI+cG-2-AllylP (30 mg/kg by oral gavage, 30 min post-injury, and again once daily until endpoint). AU procedures were approved by the Institutional Animal Care and Use Committee of WRAIR. Animals were housed in a facility accredited by the AAALAC. […]
Samples were analysed at 24 hr and 3 and 7 days post-injury for all groups (sham+vehicle, PBBI+vehicle, PBBI+cG-2-AllylP). […]

The test system of test [2] is synaptophysin (SYN). Kind of test: PBBI in rats: synaptophysin (SYN) immunohistochemistry in hippocampus. The format is in vivo, Sprague-Dawley rats. The conditions noted are these: 30 mg/kg oral once daily. Here is the method: The methods for producing PBBI in this Example is the same as described above for Example 26. Adult Sprague-Dawley rats were randomly assigned into three groups: sham (craniotomy only), PBBI+vehicle (i.e. H2O), and PBBI+cG-2-AllylP. cG-2-AllylP (or vehicle) was administered via oral gavage at 30 mg/kg at 30 min post-injury and continued once daily thereafter for 7, 14 or 28 days. At each treatment endpoint, rats were perfused and brains were processed for histological analysis (n=5-6/group/time-point). For detection of axonal sprouting, immunohistochemical detection of growth-associated protein-43 (GAP-43) was employed. Synaptogenesis was determined by immunohistochemistry for synaptophysin (SYN). For histological quantification, the integrated density in the hippocampal region was determined using NIH ImageJ software.

Test [3] has as its system interleukin-6. Description: PBBI in rats: IL-6 ELISA. The class given is in vivo. The source says:
The unilateral frontal PBBI model, which mimics the ballistic dynamics of a bullet or fragment wound to the head (Williams, 2003; Williams, 2006), was induced by stereotactic insertion of a custom probe through the right frontal cortex. A temporary cavity was formed by the rapid inflation/deflation (i.e. <40 msec) of an elastic balloon attached to the end of the probe. The PBBI apparatus consisted of a computer-controlled hydraulic pressure generator (Mitre Corp McLean, Va.), a PBBI probe and a stereotaxic frame equipped with a custom-designed probe holder as previously described (Lu, 2009; Williams, 2003). The injury severity was determined by the size of the balloon under control of the computerized hydraulic pressure. The balloon diameter calibrated to 0.63 cm expansion represented 10% of the total rat brain volume thus expressing a 10% PBBI. All surgeries were done under anaesthesia. Groups tested: Sham+vehicle, PBBI+vehicle, PBBI+cG-2-AllylP (30 mg/kg by oral gavage, 30 min post-injury, and again once daily until endpoint). AU procedures were approved by the Institutional Animal Care and Use Committee of WRAIR. Animals were housed in a facility accredited by the AAALAC.
cG-2-AllylP (or vehicle) was administered to the animals via oral gavage at a dose of 30 mg/kg.
Target proteins were quantified with interleukin 1 beta (“IL-1beta”) (GenWay Biotech GWB-SKR107) and interleukin-6 (“IL-6”) (GenWay Biotech GWB-ZZD100) ELISAs according to manufacturer's instructions. Levels were calculated and normalized to total protein concentration as determined by BCA assay (n=9-10 per group).

For test [4], the system named is fmr1-knockout and wild-type animals. Description: Contextual fear conditioning (freezing behavior). The format is in vivo, mice. The source says:
Fear conditioning to either a cure or a context represents a form of associative learning that has been well used in many species. The dependent measure used in contextual (delay) fear conditioning is a freezing response that takes place following pairing of an unconditioned stimulus (foot shock), with a conditioned stimulus (CS), a particular context and/or such a cue. If in a conditioning context one administers a foot shock that is paired with atone, there will be learning not only to the tone, but also to the context.
Contextual fear conditioning is a bask conditioning procedure. It involves taking an animal and placing it in a novel environment, providing an aversive stimulus, and then removing it. […] Freezing is a response to fear, which has been defined as “absence of movement except for respiration.” This freezing behavior may last from seconds to minutes depending on the strength of the aversive stimulus, the number of presentations, and the degree of learning achieved by the subject.
The device used in this study is depicted in FIG. 27. An unconditioned stimulus (mild shock to the feet) was applied, and the conditioned stimulus was a tone applied along with the shock to the feet. Under these conditions, the animals associate the unconditioned stimulus with both the conditioned stimulus and the context of the stimuli. Animals were tested for […].

Test [5] has as its system Akt. Description: Phosphorylated AKT by Western blot. The format is in vivo, mice. As to conditions: full brain lysates; fmr1-knockout animals; normalized to GAPDH. Here is the method: Phosphorylation levels of ERK1/2 and Akt of full brain lysates were evaluated using Western blots. The mice were sacrificed and the brains removed 12 days after the last injection, and immediately after the last behavioral test. Other studies measured pERK and pAkt in blood lymphocytes. The results of Western analysis were normalized to the amount of GAPDH protein seen in each blot.

The subject of test [6] is MeCP2 deficient mice. Description: Seizure activity, electroencephalograph recordings in MeCP2 deficient mice. The format is in vivo. The source says:
Electroencephalograph: recordings of wild-type mice and MeCP2 deficient mice treated with either saline or cG-2-AllylP are obtained using methods described in U.S. Pat. No. 7,714,020, incorporated fully by reference.

As to `C=CC[C@]12CCCN1C(=O)CNC2=O` [cG-2-AllylP, (8aS)-Allyl-hexahydropyrrolo[1,2-a]pyrazine-1,4-dione], in test [1], the ATF3 expression entry is “decreased ATF3 at 24 hrs. after PBBI”. For the same compound, the “injury-induced reduction in SYN expression” value in test [2] (7d or 14d post-PBBI) is on record as “no effect on injury-induced reductions”. Also, the “PBBI-induced reduction in SYN expression” value in test [2] (28 days post-injury) is given as “attenuated PBBI-induced reductions”. The IL-6 levels entry in test [3] (24 hrs. after PBBI, 30 mg/kg oral gavage) is “decreased IL-6 levels”; in test [3] (3 days after PBBI, 30 mg/kg oral gavage once daily), “little effect at 3 days”; in test [3] (7 days after PBBI, 30 mg/kg oral gavage once daily), “decreased IL-6 levels”. Moreover, the “time spent in freezing behavior” value in test [4] is “substantial and statistically significant increase in the time spent in freezing behavior”. For the same compound, in test [5], the “phosphorylated AKT” value is “about 0.9 UA units”. Besides, the “motor seizures and non-convulsive seizures” value in test [6] is “effective in decreasing both motor seizures and non-convulsive seizures”.

The values above are taken from patent US11197856B2, “Bicyclic compounds and methods for their use in treating autism” (priority 2013, dated 2021).
